Measurements reported in PMC12316034, “Tetrahydromagnolol induces autophagic cell death by targeting the m^6A reader protein YTHDF2 and enhances the efficacy of anti-PD-1 immunotherapy in pancreatic cancer cells” (Theranostics, 2025).

Target: T1, YTHDF2 (YTH N6-methyladenosine RNA binding protein F2) (Homo sapiens, UniProt Q9Y5A9)
T1 construct: recombinant protein of YTHDF2 (NCBI: 51441)
T1 sequence (Q9Y5A9 2-579): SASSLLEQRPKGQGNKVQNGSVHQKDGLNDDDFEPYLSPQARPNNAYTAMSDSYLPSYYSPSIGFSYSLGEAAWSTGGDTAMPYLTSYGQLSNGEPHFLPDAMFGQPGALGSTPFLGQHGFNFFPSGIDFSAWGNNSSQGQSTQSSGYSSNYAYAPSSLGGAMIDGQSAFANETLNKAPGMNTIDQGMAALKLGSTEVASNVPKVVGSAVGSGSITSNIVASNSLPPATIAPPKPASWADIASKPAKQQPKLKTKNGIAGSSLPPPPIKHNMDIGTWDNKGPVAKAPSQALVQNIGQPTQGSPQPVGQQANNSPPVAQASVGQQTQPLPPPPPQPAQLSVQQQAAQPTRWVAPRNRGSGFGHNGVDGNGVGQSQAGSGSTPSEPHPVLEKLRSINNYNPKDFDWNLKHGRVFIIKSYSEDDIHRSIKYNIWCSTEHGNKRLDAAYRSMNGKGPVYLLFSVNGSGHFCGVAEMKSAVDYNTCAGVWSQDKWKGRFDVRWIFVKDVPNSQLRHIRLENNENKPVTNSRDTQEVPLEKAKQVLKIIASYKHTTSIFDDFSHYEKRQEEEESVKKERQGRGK
Test: SPR on immobilised recombinant YTHDF2; also ITC, THM-bead pull-down, CETSA, LC-MS/MS

Compound CCCc1ccc(O)c(-c2cc(CCC)ccc2O)c1 [Tetrahydromagnolol] has a Kd of 22 µM.
